Data on four compounds can be found in patent publication US20100056524A1, “Compound” (priority 2008, published 2010).

Counter-ions that a name gives are not always drawn. Like-named read-outs stand apart in the source and are kept apart here.

What all share (type): biochemical
One assay deals with T1, TBK1 (Homo sapiens, UniProt Q9UHD2).
T1 construct: All protein kinases were of human origin and encoded full length proteins, unless indicated otherwise; His6; made in house; host or cells: insect Sf21 cells
T1 sequence (Q9UHD2 1-729): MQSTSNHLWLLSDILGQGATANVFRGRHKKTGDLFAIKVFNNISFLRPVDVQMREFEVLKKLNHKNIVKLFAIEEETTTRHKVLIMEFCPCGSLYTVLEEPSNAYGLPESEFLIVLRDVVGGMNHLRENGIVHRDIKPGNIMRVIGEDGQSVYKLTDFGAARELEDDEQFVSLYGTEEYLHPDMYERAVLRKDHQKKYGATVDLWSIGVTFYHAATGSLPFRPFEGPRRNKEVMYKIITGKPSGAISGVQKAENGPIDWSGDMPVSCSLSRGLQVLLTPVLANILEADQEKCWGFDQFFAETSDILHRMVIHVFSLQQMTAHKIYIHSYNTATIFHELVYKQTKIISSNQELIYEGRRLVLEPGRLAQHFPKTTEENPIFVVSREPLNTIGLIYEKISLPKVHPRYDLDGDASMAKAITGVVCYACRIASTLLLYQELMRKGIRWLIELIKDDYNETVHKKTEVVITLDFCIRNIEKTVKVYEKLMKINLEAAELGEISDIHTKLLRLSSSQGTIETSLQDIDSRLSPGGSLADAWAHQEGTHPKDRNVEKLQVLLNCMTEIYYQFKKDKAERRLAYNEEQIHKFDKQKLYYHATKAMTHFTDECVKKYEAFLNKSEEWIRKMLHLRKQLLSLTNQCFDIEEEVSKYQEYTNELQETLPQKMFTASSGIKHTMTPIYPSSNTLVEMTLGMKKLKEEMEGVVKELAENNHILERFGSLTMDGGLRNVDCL
Put plainly: TBK1 protein kinase assay ([γ-33P]ATP, P81 filterplates). The gist of the method: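 Human TBK1 assayed for 30 min with peptide substrate (300 μM), 50 μM [γ-33P]ATP and 10 mM magnesium acetate in 50 mM Tris/HCl pH 7.5, 0.1 mM EGTA, 0.1% 2-mercaptoethanol. Stopped with orthophosphoric acid and counted on P81 filters. IC50 from 10 compound concentrations.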

A further assay deals with T2, GSK3b (Homo sapiens, UniProt P49841).
T2 construct: All protein kinases were of human origin and encoded full length proteins, unless indicated otherwise; made in house
The assay can be described thus: GSK3b protein kinase assay. Conditions: for remaining activity at 10 µM: 10 μM compound; for residual kinase activity GSK3b: 1 μm compound; for remaining activity at 1 µM: 1 μM compound. The source says: (§1) All protein kinases were of human origin and encoded full length proteins, unless indicated otherwise. They were either expressed as glutathione S-transferase (GST) fusion proteins in Escherichia Coli or as hexahistidine (His6)-tagged proteins in insect Sf21 cells. GST fusion proteins were purified by affinity chromatography on glutathione-Sepharose, and His6-tagged proteins on nickel/nitriloacetate-agarose. The procedures for expressing some of the protein kinases used herein have been detailed previously.^8,9 The following sections outline the DNA vectors synthesised and the procedures used to express and purifying protein kinases that have not been reported previously.
(§2) All assays (25.5 μl) were carried out at room temperature (21° C.) and were linear with respect to time and enzyme concentration under the conditions used. Assays were performed for 30 min using Multidrop Micro reagent dispensers (Thermo Electron Corporation, Waltham, Mass. 02454, USA) in a 96-well format. The concentration of magnesium acetate in the assays was 10 mM and the [γ-33P] ATP (800 cpm/pmol) was used at 5, 20 or 50 μM as indicated, in order to be at or below the Km for ATP for each enzyme. Protein kinases assayed at 5 μM ATP were: —ERK1, ERK8, PKBα, MARK3, Aurora C. Protein kinases assayed at 20 μM ATP were: —JNK1, PDK1, CHK1, CHK2, CDK2 and Aurora B. Protein kinases assayed at 50 μM ATP were: —MNK2, IKKepsilon and TBK1.
(§3) The assays were initiated with MgATP, stopped by addition of 5 μl of 0.5 M orthophosphoric acid and spotted on to P81 filterplates using a unifilter harvester (PerkinElmer, Boston, Mass. 02118, USA). The IC50 values of inhibitors were determined after carrying out assays at 10 different concentrations of each compound.
(§4) Unless stated otherwise, enzymes were diluted in 50 mM Tris/HCl pH 7.5, 0.1 mM EGTA, 1 mg/ml BSA, 0.1% (v/v) 2-mercaptoethanol and assayed in 50 mM Tris/HCl pH 7.5, 0.1 mM EGTA, 0.1% (v/v) 2-mercaptoethanol.

Another assay has as its target T3, DYRK3 (Homo sapiens, UniProt O43781).
T3 construct: All protein kinases were of human origin and encoded full length proteins, unless indicated otherwise; made in house
T3 sequence (O43781 1-588): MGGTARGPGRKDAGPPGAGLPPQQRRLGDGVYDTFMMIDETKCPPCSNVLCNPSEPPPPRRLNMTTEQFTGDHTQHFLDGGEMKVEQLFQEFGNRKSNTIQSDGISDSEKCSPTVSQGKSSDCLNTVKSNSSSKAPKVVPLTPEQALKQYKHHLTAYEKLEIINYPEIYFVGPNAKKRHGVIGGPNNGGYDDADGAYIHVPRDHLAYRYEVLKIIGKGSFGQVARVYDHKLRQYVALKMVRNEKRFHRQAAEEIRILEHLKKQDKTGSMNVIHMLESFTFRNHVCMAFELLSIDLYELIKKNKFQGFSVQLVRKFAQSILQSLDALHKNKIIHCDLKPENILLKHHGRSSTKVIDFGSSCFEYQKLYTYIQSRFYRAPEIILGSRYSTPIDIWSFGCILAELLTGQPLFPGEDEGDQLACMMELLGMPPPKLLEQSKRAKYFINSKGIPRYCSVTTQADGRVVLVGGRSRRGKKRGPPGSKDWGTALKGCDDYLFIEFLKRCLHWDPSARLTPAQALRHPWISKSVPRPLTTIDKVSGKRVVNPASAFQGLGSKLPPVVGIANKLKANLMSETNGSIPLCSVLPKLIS
Put plainly: DYRK3 protein kinase assay. Conditions: for remaining activity at 10 µM: 10 μM compound; for residual kinase activity DYRK3: 1 μm compound; for remaining activity at 1 µM: 1 μM compound.
Text: as §1, §2, §3, §4

[1] abbreviates: read-out: residual kinase activity GSK3b.
Setting [2] is: read-out: residual kinase activity DYRK3.
[3] abbreviates: GSK3b, read-out: residual kinase activity.
Setting [4] is: DYRK3, read-out: residual kinase activity.
Where [5] appears, read: 50 μM ATP, read-out: Potency (TBK1 IC50 potency score).
Setting [6] is: Table 2, 50 μM ATP, read-out: TBK1 IC50.

T2 sequence (P49841 whole entry): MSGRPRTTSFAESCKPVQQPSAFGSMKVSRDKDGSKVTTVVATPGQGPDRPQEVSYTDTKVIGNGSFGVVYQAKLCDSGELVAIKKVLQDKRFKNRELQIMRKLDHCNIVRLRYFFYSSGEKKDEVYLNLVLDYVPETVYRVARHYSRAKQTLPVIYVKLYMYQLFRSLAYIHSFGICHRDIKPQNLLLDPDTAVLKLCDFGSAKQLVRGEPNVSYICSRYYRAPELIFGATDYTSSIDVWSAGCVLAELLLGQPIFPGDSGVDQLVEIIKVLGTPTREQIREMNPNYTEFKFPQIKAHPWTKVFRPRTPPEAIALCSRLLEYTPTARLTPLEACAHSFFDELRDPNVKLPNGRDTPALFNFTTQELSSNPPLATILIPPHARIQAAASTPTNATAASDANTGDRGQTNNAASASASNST

As for `O=C(NCCCNc1nc(Nc2cccc(F)c2)ncc1Br)C1CCC1` [Compound A, cyclobutanecarboxylic acid {3-[5-bromo-2-(3-fluoro-phenylamino)-pyrimidin-4-ylamino]-propyl}-amide, reference compound], the IC50 (as a rule, the concentration that gives 50% inhibition) at TBK1 (read-out: TBK1 IC50) was 2 nM. Moreover, the remaining activity at 10 µM at GSK3b (setting [1]) stood at 4%; at DYRK3 (setting [2]) it was 7%. In addition, on GSK3b, the “residual kinase activity GSK3b” value stood at 23%. For the same compound, on DYRK3, the “residual kinase activity DYRK3” value worked out at 33%.
With `O=C(NCCCNc1nc(Nc2cccc(N3CCCC3=O)c2)ncc1C1CC1)c1cccs1` [Example 47, Thiophene-2-carboxylic acid (3-{5-cyclopropyl-2-[3-(2-oxo-pyrrolidin-1-yl)-phenylamino]-pyrimidin-4-ylamino}-propyl)-amide. Hydrochloride salt], the remaining activity at 1 µM at GSK3b (setting [3]) and at DYRK3 (setting [4]) was 73% each time. Besides, the results for the remaining activity at 10 µM at GSK3b (setting [3]) and at DYRK3 (setting [4]) were 31% and 33%, respectively.
Regarding `O=C(NCCCNc1nc(Nc2cccnc2)ncc1C1CC1)c1cccs1` [Example 50, Thiophene-2-carboxylic acid {3-[5-cyclopropyl-2-(pyridin-3-ylamino)-pyrimidin-4-ylamino]-propyl}-amide], the IC50 at TBK1 (setting [5]) was 100 to 1000 nM; on TBK1 (setting [6]), 108 nM. Also, the values for the remaining activity at 1 µM on GSK3b (setting [3]) and at DYRK3 (setting [4]) were 52% and 59%, respectively. Moreover, the remaining activity at 10 µM on GSK3b (setting [3]) was found to be 19%; at DYRK3 (setting [4]), 22%.
As for `O=C(NCCCNc1nc(Nc2cccc(F)c2)ncc1C1CC1)C1CCC1` [Example 23, Cyclobutanecarboxylic acid {3-[5-cyclopropyl-2-(3-fluoro-phenylamino)-pyrimidin-4-ylamino]-propyl}-amide], the IC50 on TBK1 (setting [5]) was under 100 nM; at TBK1 (setting [6]), 4 nM; at TBK1 (Table 5, 50 μM ATP, read-out: TBK1 IC50), 4 nM; on TBK1 (read-out: TBK1 IC50) it was 4 nM. For the same compound, the “fold more active against TBK1 than Compound B or Compound C” value at TBK1 (from TBK1 IC50 values of Table 5) is given as over 250 fold. The remaining activity at 10 µM came out at 20% on GSK3b (setting [1]), 20% at GSK3b (setting [3]), 36% on DYRK3 (setting [2]) and 36% at DYRK3 (setting [4]). The “residual kinase activity GSK3b” value on GSK3b turned out to be 53%. The remaining activity at 1 µM is 53% on GSK3b (setting [3]) and 78% at DYRK3 (setting [4]). Also, the “residual kinase activity DYRK3” value on DYRK3 came to 78%.
